Assay results reported in ChEMBL document CHEMBL2021844, “The central valine concept provides an entry in a new class of non peptide inhibitors of the p53-MDM2 interaction” (Bioorg Med Chem Lett, 2012).

Key:
[1] = biological target: Tumour suppressor p53/oncoprotein Mdm2 (Homo sapiens, UniProt Q00987); test: Inhibition of p53 (18 to 26)-MDM2 (2 to 188) interaction using fluorescent dye Cy5 by TR-FRET assay; format: protein assay
Protein Mdm4 = biological target: T1, Protein Mdm4 (Homo sapiens, UniProt O15151); test: Inhibition of p53 derived peptide binding to MDM4 using fluorescent dye Cy5 by TR-FRET assay
T1 sequence (O15151 whole entry): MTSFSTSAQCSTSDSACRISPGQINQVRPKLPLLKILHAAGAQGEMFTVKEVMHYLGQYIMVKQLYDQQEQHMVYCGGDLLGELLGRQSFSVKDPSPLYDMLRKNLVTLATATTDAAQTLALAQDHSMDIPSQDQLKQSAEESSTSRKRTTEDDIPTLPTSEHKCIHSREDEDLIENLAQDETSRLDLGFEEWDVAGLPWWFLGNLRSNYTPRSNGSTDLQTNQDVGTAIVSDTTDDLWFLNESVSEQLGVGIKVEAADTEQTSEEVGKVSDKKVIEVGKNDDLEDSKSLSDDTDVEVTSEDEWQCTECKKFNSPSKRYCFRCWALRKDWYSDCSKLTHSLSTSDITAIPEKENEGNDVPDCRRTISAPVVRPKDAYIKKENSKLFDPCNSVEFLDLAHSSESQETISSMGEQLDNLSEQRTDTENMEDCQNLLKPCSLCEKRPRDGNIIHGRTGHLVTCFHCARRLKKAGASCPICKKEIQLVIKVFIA

SJSA-1 [2] = test: Ratio of IC50 for human SJSA1 cells expressing p53 to IC50 for human p53 deficient SAOS2 cells; format: functional
SJSA-1 [3] = test: Antiproliferative activity against human SJSA1 cells expressing p53; format: functional, cell-based

Chain of Tumour suppressor p53/oncoprotein Mdm2 (P04637 whole entry): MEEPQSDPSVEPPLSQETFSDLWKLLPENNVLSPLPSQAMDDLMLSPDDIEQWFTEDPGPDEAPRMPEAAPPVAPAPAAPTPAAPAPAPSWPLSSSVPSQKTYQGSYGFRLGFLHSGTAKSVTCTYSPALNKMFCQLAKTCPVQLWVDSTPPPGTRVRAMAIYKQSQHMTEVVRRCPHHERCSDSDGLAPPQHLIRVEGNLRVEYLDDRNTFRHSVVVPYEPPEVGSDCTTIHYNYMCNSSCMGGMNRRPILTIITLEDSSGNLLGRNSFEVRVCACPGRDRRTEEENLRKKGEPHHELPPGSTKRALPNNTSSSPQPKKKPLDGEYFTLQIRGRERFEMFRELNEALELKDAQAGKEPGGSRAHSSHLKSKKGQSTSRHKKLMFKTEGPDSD
Chain of Tumour suppressor p53/oncoprotein Mdm2 (Q00987 whole entry): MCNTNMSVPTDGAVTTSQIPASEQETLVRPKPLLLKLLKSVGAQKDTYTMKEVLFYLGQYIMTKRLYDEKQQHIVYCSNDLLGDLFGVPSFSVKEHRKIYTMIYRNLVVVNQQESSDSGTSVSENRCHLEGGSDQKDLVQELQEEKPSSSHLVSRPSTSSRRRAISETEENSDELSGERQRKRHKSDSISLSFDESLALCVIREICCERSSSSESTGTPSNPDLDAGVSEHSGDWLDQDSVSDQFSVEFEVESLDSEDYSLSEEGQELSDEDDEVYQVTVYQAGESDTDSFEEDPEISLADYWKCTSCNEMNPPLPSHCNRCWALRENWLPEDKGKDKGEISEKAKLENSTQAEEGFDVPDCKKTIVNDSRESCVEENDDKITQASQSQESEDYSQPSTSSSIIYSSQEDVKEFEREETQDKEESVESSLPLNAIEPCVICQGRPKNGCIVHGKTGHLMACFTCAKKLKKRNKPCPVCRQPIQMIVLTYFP

Row | IC50 [1] [µM] | IC50 (Protein Mdm4) [µM] | SMILES | Ratio IC50 (SJSA-1 [2]) | IC50 (SJSA-1 [3]) [µM]
1 | 3.4 | 70 | COc1ccc(Cn2c(C)nc(Cc3ccc(N)cc3)c2Cc2ccc(Cl)cc2)cc1 | – | –
2 | 0.9 | 18 | CC(C)CCn1cnc(-c2ccccc2)c1-c1c[nH]c2cc(Cl)ccc12 | – | –
3 | 0.2 | 22 | Clc1ccc(Cn2cnc(-c3ccccc3)c2-c2c[nH]c3cc(Cl)ccc23)cc1 | – | –

Row | SMILES | IC50 [1] [µM] | IC50 (Protein Mdm4) [µM] | Ratio IC50 (SJSA-1 [2]) | IC50 (SJSA-1 [3]) [µM]
4 | O=C(NCCN1CCOCC1)c1[nH]c2cc(Cl)ccc2c1-c1c(-c2ccccc2)ncn1Cc1ccc(Cl)cc1 | – | 19 | 3 | 7.3
